This data set is described as follows: gradient 5% acetonitrile 3 min, to 50% in 2 min, to 85% in 15 min, held 3 min, 100 µL/min. The following applies: column: Zorbax Extend-C18 2.1 x 50 mm; eluents: water / acetonitrile, 0.1% formic acid. An outline of the steps: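 Retention times come from adduct peaks that were picked computationally and then checked by hand. The standards, pure and pooled in mixtures of ~100 molecules, were run on a Zorbax Extend-C18 column (2.1 × 50 mm, 1.8 μm) at 100 μL/min with water and acetonitrile, each with 0.1% formic acid. Detection was by quadrupole time-of-flight mass spectrometry in positive and negative ionization mode, with a dead volume of 40 μL and a dwell volume of 900 μL.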
The compound `CCc1sc(NC(=O)c2cc3c([nH]c2=O)CCCC3=O)nc1-c1ccc(Cc2ccccc2)cc1` came in with an RP-LC retention time of 1140 s.
As for `CCn1c(=O)sc2cc(S(=O)(=O)N3CCC(C(=O)N(C)c4ccc(C)cc4)CC3)ccc21`, the figure is 953 s; as for `CCc1nc(-n2cccc2)sc1C(=O)Nc1ccc(C)cc1F`, 1200 s; as for `Cc1nc(C#Cc2ccnc(Cl)c2)c(C)n1-c1ccc(OC(F)(F)F)cc1`, 898 s.
Then `O=C(Nc1ccccn1)C1CCCN(S(=O)(=O)c2cc(-c3noc(C4CCC4)n3)cs2)C1` (centres undefined), with 978 s.
For `COC(=O)CSc1ccc(NC(C)=O)nn1`, the RP-LC retention time is 577 s.
`Cc1oc2ccn(Cc3ccc(F)cc3)c(=O)c2c1C(=O)NCc1cccs1` returned an RP-LC retention time of 1030 s.
The compound `COc1ccc(-c2ncc3c(n2)CCN(C(=O)c2ccccc2C(F)(F)F)C3)cc1` yielded an RP-LC retention time of 983 s.
As for `CCc1nn(CC(=O)NCCc2c[nH]c3ccccc23)c(=O)c2cc3sc(C)cc3n12`, the figure is 894 s; as for `O=C(CN1CC=C(c2cnn(-c3ccccc3)c2)CC1)Nc1ccc2c(c1)OCCO2`, 675 s.
`COC(=O)c1ccc2c(=O)n(-c3ccccc3)c(N3CCCCC3)nc2c1` came in with an RP-LC retention time of 1170 s.
As for `COCCc1noc(-c2cnc3nc(C)ccc3c2Nc2cccc(F)c2)n1`, the figure is 729 s; as for `Cc1ccc(CC(=O)NC2CCN(c3cc(-c4cccs4)[nH]n3)C2)cc1` (centres undefined), 732 s.
Then `COc1ccc(OC)c(CNC(=O)c2c(N3CCCC3=O)c3cc(OC)ccc3n2C)c1`, with 849 s; and `COCc1cc(=O)n(CC(=O)NCc2ccc(F)c(Cl)c2)c(N)n1`, with 625 s.
Compound `O=C(c1ccc(-c2csc(C3CC3)n2)cc1)N1CCN(c2ccccn2)CC1` gave an RP-LC retention time of 650 s.
Compound `Cc1ccc(Nc2c(-c3nc(C)no3)cnc3nc(C)ccc23)cc1` had an RP-LC retention time of 750 s.
Then `CCn1c(=O)c(N2CCCC(C(=O)N3CCN(c4ccc(Cl)cc4)CC3)C2)nc2ccccc21` (centres undefined), with 1230 s.
As for `Cn1cc(-c2cc3n(n2)CCC(=O)N3CC(=O)NCCC2=CCCCC2)c2ccccc21`, the figure is 891 s; as for `Cn1cnc2c(C(=O)N3CCN(c4ccccn4)CC3)nn(-c3ccccc3)c2c1=O`, 599 s.
As for `COc1ccc(CCNC(=O)Cn2cnc(C)cc2=O)cc1OC`, the RP-LC retention time is 574 s.
As to `Fc1ccc(-c2nnc(Cc3nc(-c4cccc(Br)c4)no3)o2)cc1`, the RP-LC retention time worked out at 1090 s.
Take `CCOCCCNC(=O)[C@@H]1[C@H](c2cc(OC)c(OC)c(OC)c2)c2cc3c(cc2[C@H](O)[C@H]1CO)OCO3`: the RP-LC retention time came out at 653 s.
`N#Cc1cccc(NC(=O)Cn2c(=O)cc(C(=O)N3CCCC3)c3ccccc32)c1` showed an RP-LC retention time of 690 s.
Then `Cc1cc(C)cc(NS(=O)(=O)c2cc3c4c(c2)CCC(=O)N4CCC3)c1`, with 874 s; and `Cc1cc(N2CCN(C)CC2)nc2ccc(NC(=S)N3CCN(c4ccc(F)cc4)CC3)cc12`, with 606 s.
Compound `COc1ccc(-c2cc3ccccc3[nH]2)cc1` returned an RP-LC retention time of 1100 s.
Then `COCCOCc1nc(C2CCN(S(=O)(=O)c3cc(F)ccc3F)CC2)no1`, with 806 s; and `O=C(NCC(F)(F)F)C1CCN(C(=O)Cc2ccc(Cl)cc2)CC1`, with 707 s; and `O=C(NC1CCN(c2nnc3ccc(Cl)cn23)CC1)c1ccsc1`, with 602 s.
Compound `O=c1n(Cc2ccc3c(c2)OCO3)nc2c(S(=O)(=O)N3CCCC3)cccn12` gave an RP-LC retention time of 783 s.
Then `Cc1nc2c(-c3ccc(F)cc3)c(C)nn2c(C)c1CCC(=O)N1CCN(c2ccccn2)CC1`, with 682 s; and `COC(=O)c1ccc(NC(=O)N(C)Cc2cc(=O)[nH]c3ccccc23)cc1`, with 694 s.
As for `O=C(CCSc1ccccc1)NCCn1nc(-c2ccc(Cl)cc2)ccc1=O`, the figure is 600 s.
Then `O=C(Nc1cnc(N2CCCCCC2)nc1)c1cccs1`, with 859 s; and `O=C(Nc1ccc(OCc2nnc(-c3ccccc3)o2)cc1)c1ccc(Br)o1`, with 936 s; and `O=c1c2ccccc2c(-c2nc(-c3ccncc3)no2)cn1-c1ccc(F)cc1`, with 1080 s.
`Cc1ccc(-c2csc(NC(=O)COc3cc(C)ccc3C(C)C)n2)cc1` came in with an RP-LC retention time of 992 s.
Turning to `CCN1CCN(CCCNC(=O)c2oc3ccc4c(c3c2C)C(O)CC(C)(C)O4)CC1` (centres undefined), the RP-LC retention time is 592 s.
As for `Cc1ccc(-c2cc3n(n2)CCCN(C(=O)c2cccc(C#N)c2)C3)cc1`, the RP-LC retention time turned out to be 862 s.
On to `Cc1ccc(C(C)NC(=O)C2CCN(c3nccnc3Oc3ccccc3)CC2)cc1C` (centres undefined), for which the RP-LC retention time amounted to 1070 s.
Then `Cc1nc(-c2csc(S(=O)(=O)N3CCC(C(=O)Nc4ccccn4)CC3)c2)no1`, with 740 s.
As for `CCn1nc(CNC(=O)Cc2cccs2)c2ccccc21`, the figure is 766 s.
On to `O=C(NCc1ccc2c(c1)OCO2)C1CC(=O)N(CCc2c[nH]c3ccc(Cl)cc23)C1` (centres undefined), for which the RP-LC retention time stood at 799 s.
The compound `CCN(CC)S(=O)(=O)c1ccc2nc(N3CCN(c4ccccn4)CC3)cnc2c1` came in with an RP-LC retention time of 675 s.
In turn, `CCN1CCn2cc(C(=O)NCc3cc(C)ccc3C)nc2C1` displayed an RP-LC retention time of 592 s.
As for `Cc1ccccc1CNC(=O)c1c(C)oc2c1C1=NCCN1C=N2`, the figure is 621 s; as for `Cn1ncc2c(Nc3cccc(Cl)c3)nc(N3CCN(C4CCCCC4)CC3)nc21`, 751 s.
Compound `COc1ccc(N(C(=O)Nc2ccccc2OC)C2=NCCC2)cc1Cl` displayed an RP-LC retention time of 1060 s.
As for `CN1C(=O)C2(CCN(C(=O)Nc3ccccc3)C2)c2ccccc21` (centres undefined), the RP-LC retention time came to 764 s.
Consider `Cc1ccnc(NC(=O)C2CCN(S(=O)(=O)c3cc(C(=O)N4CCCCCC4)cs3)CC2)c1`, for which the RP-LC retention time stood at 638 s.
As for `Cc1ccc(C)c(N2CCN(S(=O)(=O)c3cc(-c4cnn5c(C)cc(C)nc45)ccc3C)CC2)c1`, the figure is 1270 s.
Take `CCOCCCNC(=O)C1CCCN(C(=O)c2cc(C)cc(C)c2)C1` (centres undefined): the RP-LC retention time turned out to be 743 s.
As for `Cc1ccc(-c2nc(Cn3cccc3C(=O)NCc3cccs3)no2)cc1`, the figure is 1040 s; as for `CN1CCC(N2CCN(S(=O)(=O)c3ccccc3F)CC2)C1=O` (centres undefined), 545 s.
As to `COc1cc(NC(=O)Cn2ccc3ccc(-c4nnc(C)o4)cc32)cc(OC)c1OC`, the RP-LC retention time worked out at 726 s.
Compound `CSc1ccc(CNC(=O)c2ccc3c(c2)NC(=O)C2CCCCN32)cc1` (centres undefined) displayed an RP-LC retention time of 850 s.
Then `CSc1cccc(NC(=O)N2CCC(N3CCN(Cc4ccccc4)C(=O)C3=O)CC2)c1`, with 770 s; and `COC(=O)c1ccc2c(=O)n(CCc3ccccc3)c(N3CCCC3)nc2c1`, with 1210 s; and `COc1ccc(NC(=O)C2CC(=O)N(c3n[nH]c4cccc(F)c34)C2)cc1Cl` (centres undefined), with 752 s.
Then `CC(C)(C)C1CCc2c(sc3nc(CCC(=O)N4CCC(C(N)=O)CC4)[nH]c(=O)c23)C1` (centres undefined), with 779 s; and `COc1ccc(C(=O)N2CCCC2c2nc(-c3ccccc3)n[nH]2)cc1` (centres undefined), with 707 s.
`CCCn1cc(C(=O)NC2CCCC2)c2nn(-c3ccccc3)c(=O)c-2c1` returned an RP-LC retention time of 738 s.
`Cc1c(NC(=O)c2ccc([N+](=O)[O-])cc2Cl)c(=O)n(-c2ccccc2)n1C` registered an RP-LC retention time of 652 s.
Then `COC1CN(C2CCN(C(=O)c3cccs3)CC2)C12CCOCC2` (centres undefined), with 572 s.
Then `Cc1cc(Cl)ccc1NC(=O)Cn1nc(C(=O)N2CCCCC2)c2ccccc21`, with 778 s; and `CCCCN(C)S(=O)(=O)c1cc(-c2nnc(C)o2)co1`, with 821 s.
For `O=C(c1ccccc1)c1ccc[nH]1`, the RP-LC retention time came out at 842 s.
As for `CCCNC(=O)C1CCN(Cc2cc3ccccc3n2Cc2ccc(Cl)cc2)CC1`, the figure is 768 s.
`O=S(=O)(CCc1ccccc1)N1CCCn2nc(-c3cccs3)cc2C1` had an RP-LC retention time of 988 s.
For the compound `O=C(NCCn1c(=O)n(Cc2ccccc2)c2cccnc21)c1ccoc1`, the RP-LC retention time came out at 725 s.
In the case of `CCc1nc2ccccc2c(=O)n1Cc1noc(-c2cccc(OC)c2OC)n1`, the RP-LC retention time is 872 s.
`COc1ccc(N2CCN(C(=O)COc3nccc(C)n3)CC2)cc1` registered an RP-LC retention time of 617 s.
Then `CC(=O)N1c2ccc(S(=O)(=O)N3CCCCC3)cc2CC1C(=O)NCCN(C)C` (centres undefined), with 601 s.
Compound `COc1ccc(-c2nnc(-c3ccccc3)o2)cc1S(=O)(=O)N1CCCCCC1` registered an RP-LC retention time of 1070 s.
Compound `C=CCNC(=O)c1sc(Nc2ccc(Cl)cn2)nc1C` came in with an RP-LC retention time of 746 s.
As for `Cc1nc(-c2cn(C(C)C)c3ncccc23)sc1C(=O)Nc1cccc(F)c1`, the figure is 1140 s.
Then `Cc1cc(N2CCN(C(=O)Nc3ccc4c(c3)OCCO4)CC2)nc(N2CCOCC2)n1`, with 609 s; and `O=P(OC1=CCCCC1)(c1ccccc1)c1ccccc1`, with 1030 s.

These data come from the METLIN SMRT retention time set (Domingo-Almenara et al. 2019).
